{"source": "patent US12448352B2", "about": "“Beta adrenergic agonist and methods of using the same” (Curasen Therapeutics, Inc., priority 2019, dated 2025)", "key": {"[1]": {"assay": "Mouse CNS exposure (plasma, CSF, brain)", "assay_type": "in vivo, male C57BL/6J mice", "conditions": "SC 1 mg/kg, 60 min", "experimental": "(§1) These rats were typically about 6-8 weeks old, weighing 200 g to 300 g. Animals were fasted overnight and free access to food 4 hours after dosing. A required volume of vehicle was added to reach the target concentration of the test article and vehicle component to prepare for the dosing. The dosing vehicle was PEG400 or 30% PEG400 in saline for IV, or 0.5% methylcellulose in water for PO. For IV dosing, the animals were administered intravenously via tail vein. For PO dosing, the animals were administered via oral gavage. After dosing, blood sample was collected (˜0.2 mL per time point) through jugular vein or heart puncture. Blood of each sample was transferred into plastic micro centrifuge tubes containing EDTA-K2. Collection tubes with blood samples and anticoagulant were inverted several times for proper mixing of the tube contents and then placed on wet ice. The blood samples were centrifuged at 2000 g for 5 minutes at 4° C. to obtain plasma which was stored in a freezer at −75±15° C. prior to analysis. Samples were analyzed using LC-MS/MS. WinNonlin were used for pharmacokinetic calculations.\nFor CSF sampling, after anesthesia, the foramen magnum was exposed, and a syringe was used with a venoclysis needle to sample the CSF. The CSF samples were stored in polypropylene tubes, then stored in a freezer at −75±15° C. prior to analysis.\nFor brain sampling, the rats were fully exsanguinated by using a risen of carbon dioxide prior to brain collection. Brain samples were then collected at adopted time point, quick frozen and kept at −75±15° C. All brain samples were weighted and homogenated with PBS by brain weight (g) to PBS volume (mL) ratio 1:3 before analysis. The actual concentration is the detected value multiplied by the dilution factor.\n(§2) These mice were typically about 6-8 weeks old, weighing 20 g to 30 g. Animals were free access to food before dosing. Sample amount was ˜0.03 mL per time point and sample site was dorsal metatarsal or heart puncture."}, "[2]": {"assay": "Plasma protein binding, equilibrium dialysis (human)", "assay_type": "in vitro ADME", "experimental": "Preparation of 100 mM sodium phosphate and 150 mM NaCl buffer (PBS). A basic solution was prepared by dissolving 14.2 g/L Na2HPO4 and 8.77 g/L NaCl in deionized water and the solution could be stored at 4° C. for up to 7 days. An acidic solution was prepared by dissolving 12.0 g/L NaH2PO4 and 8.77 g/L NaCl in deionized water and the solution could be stored at 4° C. for up to 7 days. The basic solution was titrated with the acidic solution to pH 7.4 and store at 4° C. for up to 7 days. pH was checked on the day of experiment and was adjusted if outside specification of 7.4±0.1.\nThawing of the frozen plasma (stored at −80° C.). Frozen plasma was thawed immediately at room temperature. The plasma was centrifuged at 3,220 g for 10 minutes to remove clots and supernatant was collected into a fresh tube. The pH of the plasma was checked and recorded. Note: a). Only use plasma that has been thawed no more than twice since arrival. b). Only use plasma within the range of pH 7 to pH 8.\nPreparation of working solutions. The working solutions of test compound and control compound ketoconazole were prepared in DMSO at the concentration of 200 μM. And then 3 μL of working solutions was removed to mix with 597 μL of rat plasma to achieve a final concentration of 1 μM (0.5% DMSO). Plasma samples were vortexed thoroughly.\nPreparation of dialysis membranes. […]"}, "[3]": {"assay": "Dog pharmacokinetic study", "assay_type": "in vivo, male Beagle dogs", "experimental": "as §1, with “The rat pharmacokinetics studies of exemplary compounds 03-3, 03-5, and 03-115 were conducted with male SD rats. These” for “These”\nDog pharmacokinetics studies of exemplary compounds 03-3, 03-5, and 03-115 were conducted substantially similarly to the rat pharmacokinetic studies, instead using male Beagle dogs. Animals for PO studies were food fasted overnight prior to dosing and were fed approximately 2 hours after dosing. Animals for IV studies had free access to food and water. Blood samples were collected through venipuncture of peripheral veins except the dosing vein."}, "[4]": {"assay": "Mouse pharmacokinetic study (plasma)", "assay_type": "in vivo, male C57BL/6J mice", "conditions": "PO 5 mg/kg", "experimental": "as §1, with “The rat pharmacokinetics studies of exemplary compounds 03-3, 03-5, and 03-115 were conducted with male SD rats. These” for “These”\nas §2, with “Mouse pharmacokinetics studies of exemplar compounds 03-3 and 03-5 were conducted substantially similarly to the rat pharmacokinetic studies, instead using male C57BL/6J mice. These” for “These”"}}, "data": [{"smiles": "Cc1ncccc1[C@@H](O)CNC(C)(C)C", "note": "[Compound 03-115]", "values": [{"measurement": "Concentration, Brain", "setting": "[1]", "value": 280, "unit": "ng/g"}, {"measurement": "Concentration, CSF", "setting": "[1]", "value": 157, "unit": "ng/mL"}, {"measurement": "Concentration, Plasma", "setting": "[1]", "value": 270, "unit": "ng/mL"}, {"measurement": "PPB (human), Percent of Unbound Fractions", "setting": "[2]", "value": 100, "unit": "%"}, {"measurement": "AUCInf", "setting": "[3]; PO 0.5 mg/kg", "value": 132, "unit": "ng·h/mL"}, {"measurement": "Cmax", "setting": "[3]; PO 0.5 mg/kg", "value": 72.3, "unit": "ng/mL"}, {"measurement": "MRT", "setting": "[3]; PO 0.5 mg/kg", "value": 1.82, "unit": "h"}, {"measurement": "Tmax", "setting": "[3]; PO 0.5 mg/kg", "value": 0.5, "unit": "h"}, {"measurement": "AUCInf", "setting": "[3]; PO 1.5 mg/kg", "value": 537, "unit": "ng·h/mL"}, {"measurement": "Cmax", "setting": "[3]; PO 1.5 mg/kg", "value": 387, "unit": "ng/mL"}, {"measurement": "MRT", "setting": "[3]; PO 1.5 mg/kg", "value": 1.69, "unit": "h"}, {"measurement": "Tmax", "setting": "[3]; PO 1.5 mg/kg", "value": 0.33, "unit": "h"}, {"measurement": "AUCInf", "setting": "[4]", "value": 3018, "unit": "ng·h/mL"}, {"measurement": "Cmax", "setting": "[4]", "value": 1751, "unit": "ng/mL"}, {"measurement": "MRTInf_obs", "setting": "[4]", "value": 1.8, "unit": "h"}, {"measurement": "Tmax", "setting": "[4]", "value": 0.5, "unit": "h"}]}]}
